From ChEMBL document CHEMBL4616597, “Could 5'-N and S ProTide analogues work as prodrugs of antiviral agents?” (Bioorg Med Chem Lett, 2020) come the findings set out here.

Data set [1] in a line: Prodrug activation assessed as carboxypeptidase Y (unknown origin) mediated cleavage at ribose sugar region resulting in formation of 2R,3R,4R,5S)-2-(6-aminopurin-9-yl)-3-methyl-5-(sulfanylmethyl)tetrahydrofuran-3,4-diol measured after 120 mins by 13C-APT spectra analysis. Conditions: human, 2 h.
In a further data set the test system is West Nile virus. Put plainly: Antiviral activity against West Nile virus. The class given is functional, organism-based.
Another data set deals with Coxsackievirus. Put plainly: Antiviral activity against CVB3. Conditions: B3. Format: functional, organism-based.
Data set [2] can be described thus: Prodrug activation assessed as carboxypeptidase Y (unknown origin) mediated metabolite formation at 3.1 ppm measured after 5 mins by P-NMR spectroscopy. Format: ADME. Particulars: human.
Data set [3] is described as follows: Prodrug activation assessed as carboxypeptidase Y (unknown origin) mediated cleavage at phenyl region resulting in formation of (2S)-2-[[hydroxy(phenoxy)phosphoryl]amino]propanoic acid measured after 120 mins by 13C-APT spectra analysis. Particulars: human, 2 h.
The test system of the next data set is Dengue virus. As to the kind of experiment: Antiviral activity against Dengue virus. Format: functional, organism-based.
The test system of data set [4] is Tick-borne encephalitis virus. Put plainly: Antiviral activity against TBEV. Format: functional, organism-based.
The nature of data set [5]: Prodrug activation assessed as carboxypeptidase Y (unknown origin) mediated cleavage of diastereoisomer measured after 120 mins by P-NMR spectroscopy. Particulars: human, 2 h.
Data set [6] can be described thus: Prodrug activation assessed as carboxypeptidase Y (unknown origin) mediated intermediate metabolite formation by P-NMR spectroscopy. The class given is ADME. Conditions: human.
A further data set deals with Zika virus. Put plainly: Antiviral activity against Zika virus. Format: functional, organism-based.
Data set [7] is described as follows: Prodrug activation in human HepG2 cell extract assessed as metabolite formation at 100 uM measured after 4 hrs by HPLC analysis. Particulars: hepg2, 4 h. The class given is ADME, cell-based.
Data set [8] concerns Human immunodeficiency virus. Put plainly: Antiviral activity against HIV. The class given is functional, organism-based.
A short description of data set [9]: Prodrug activation assessed as carboxypeptidase Y (unknown origin) mediated cleavage of diastereoisomer measured after 5 mins by P-NMR spectroscopy. Conditions: human.
Data set [10] can be described thus: Prodrug activation assessed as carboxypeptidase Y (unknown origin) mediated (2S)-2-((((2R,3R,4R,5R)-5-(6-amino-9H-purin-9-yl)-3,4-dihydroxy-4-methyltetrahydrofuran-2-yl)methylamino)(phenoxy)phosphorylamino)propanoic acid intermediate formation measured after 5 mins by P-NMR spectroscopy. Conditions: human.
The nature of data set [11]: Prodrug activation assessed as carboxypeptidase Y (unknown origin) mediated signal shift at 13.2 ppm by P-NMR spectroscopy. Particulars: human.
Data set [12] in a line: Prodrug activation assessed as carboxypeptidase Y (unknown origin) mediated metabolite formation at 3.3 ppm by P-NMR spectroscopy. The class given is ADME. Particulars: human.
Data set [13] is described as follows: Prodrug activation assessed as carboxypeptidase Y (unknown origin) mediated formation of metabolite from (2S)-2-((((2R,3R,4R,5R)-5-(6-amino-9H-purin-9-yl)-3,4-dihydroxy-4-methyltetrahydrofuran-2-yl)methylamino)(phenoxy)phosphorylamino)propanoic acid intermediate at 3.3 ppm by P-NMR spectroscopy. The class given is ADME. Conditions: human.
The nature of data set [14]: Prodrug activation assessed as carboxypeptidase Y (unknown origin) mediated signal shift at 13.5 ppm by P-NMR spectroscopy. Conditions: human.

Activity calls are given as the source filed them. The rule behind the calls is not given here.

Turning to `COC(=O)[C@H](C)NP(=O)(Oc1ccccc1)SC[C@H]1O[C@@H](n2cnc3c(N)ncnc32)[C@](C)(O)[C@@H]1O` (some centres not stated), the Drug metabolism entry in [1] was “Metabolite_Detected”; in data set [2] it was “Metabolite_Detected”; in [3], “Metabolite_Detected”; in data set [6], “Metabolite_Notdetected”; in [7], “Metabolite_Detected”. The result (with West Nile virus; with Coxsackievirus; in the data set on Dengue virus; in data set [4]; in the data set with Zika virus; in data set [8]) was inactive. Moreover, the Activity entry is reported as “Not Active” in [5] and “Active” in data set [9].
As for `COC(=O)[C@H](C)NP(=O)(NC[C@H]1O[C@@H](n2cnc3c(N)ncnc32)[C@](C)(O)[C@@H]1O)Oc1ccccc1` (some centres not stated), the outcome (in the data set on West Nile virus; with Coxsackievirus; in the data set on Dengue virus; in data set [4]; in the data set with Zika virus; in data set [8]) was inactive. In addition, the Drug metabolism entry in [10], in [12], in [13] and in data set [7] was “Metabolite_Detected” throughout. For the same compound, the Activity entry in [11] is “Active”; in data set [5], “Not Active”; in data set [14], “Active”; in [9], “Not Active”.
